Where two headings read alike, the source gives them in different places.
Test system: FLU A (PR/8/34)
Assay: Flu A Neuraminidase Antiviral Assay
Assay type: cell-based

| SMILES | EC50 | EC50 (MDCK, 48 h) |
| --- | --- | --- |
| COc1ccccc1C1C(CC(F)(F)F)CCC2N(C)C(=O)c3c(O)c(=O)ccn3N12 (single isomer, unassigned) [Compound 125A, 7-hydroxy-1-(2-methoxyphenyl)-5-methyl-2-(2,2,2-trifluoroethyl)-1,2,3,4,4a,5-hexahydrodipyrido[1,2-b:2′,1′-f][1,2,4]triazine-6,8-dione] | 1020 nM | – |
| COc1ccccc1C1C(CC(F)(F)F)CCC2N(C)C(=O)c3c(O)c(=O)ccn3N12 (single isomer, unassigned) [Compound 125B, 7-hydroxy-1-(2-methoxyphenyl)-5-methyl-2-(2,2,2-trifluoroethyl)-1,2,3,4,4a,5-hexahydrodipyrido[1,2-b:2′,1′-f][1,2,4]triazine-6,8-dione] | 2.5 nM | – |
| CN1C(=O)c2c(O)c(=O)ccn2N2C(c3ccccc3)C(CC(C)(F)F)CCC12 (single isomer, unassigned) [Compound 126A, 2-(2,2-difluoropropyl)-7-hydroxy-5-methyl-1-phenyl-1,2,3,4,4a,5-hexahydrodipyrido[1,2-b:2′,1′-f][1,2,4]triazine-6,8-dione] | > 8100 nM | – |
| CN1C(=O)c2c(O)c(=O)ccn2N2C(c3ccccc3)C(CC(C)(F)F)CCC12 (single isomer, unassigned) [Compound 126B, 2-(2,2-difluoropropyl)-7-hydroxy-5-methyl-1-phenyl-1,2,3,4,4a,5-hexahydrodipyrido[1,2-b:2′,1′-f][1,2,4]triazine-6,8-dione] | 16.1 nM | – |
| CN1C(=O)c2c(O)c(=O)ccn2N2C(c3ccccc3F)C(CC(F)(F)F)CCC12 (single isomer, unassigned) [Compound 127A, 1-(2-fluorophenyl)-7-hydroxy-5-methyl-2-(2,2,2-trifluoroethyl)-1,2,3,4,4a,5-hexahydrodipyrido[1,2-b:2′,1′-f][1,2,4]triazine-6,8-dione] | 3500 nM | – |
| CN1C(=O)c2c(O)c(=O)ccn2N2C(c3ccccc3F)C(CC(F)(F)F)CCC12 (single isomer, unassigned) [Compound 127B, 1-(2-fluorophenyl)-7-hydroxy-5-methyl-2-(2,2,2-trifluoroethyl)-1,2,3,4,4a,5-hexahydrodipyrido[1,2-b:2′,1′-f][1,2,4]triazine-6,8-dione] | 3 nM | – |
| CN1C(=O)c2c(O)c(=O)ccn2N2C(c3ccccc3)C(CCC(F)(F)F)CCC12 (single isomer, unassigned) [Compound 128A, 7-hydroxy-5-methyl-1-phenyl-2-(3,3,3-trifluoropropyl)-1,2,3,4,4a,5-hexahydrodipyrido[1,2-b:2′,1′-f][1,2,4]triazine-6,8-dione] | 799 nM | – |
| CN1C(=O)c2c(O)c(=O)ccn2N2C(c3ccccc3)C(CCC(F)(F)F)CCC12 (single isomer, unassigned) [Compound 128B, 7-hydroxy-5-methyl-1-phenyl-2-(3,3,3-trifluoropropyl)-1,2,3,4,4a,5-hexahydrodipyrido[1,2-b:2′,1′-f][1,2,4]triazine-6,8-dione] | 1.5 nM | – |
| CN1C(=O)c2c(O)c(=O)ccn2N2C(c3ccccc3)C(CC(F)F)CCC12 (single isomer, unassigned) [Compound 129A, 2-(2,2-difluoroethyl)-7-hydroxy-5-methyl-1-phenyl-1,2,3,4,4a,5-hexahydrodipyrido[1,2-b:2′,1′-f][1,2,4]triazine-6,8-dione] | 2.3 nM | – |
| CN1C(=O)c2c(O)c(=O)ccn2N2C(c3ccccc3)C(CC(F)F)CCC12 (single isomer, unassigned) [Compound 129B, 2-(2,2-difluoroethyl)-7-hydroxy-5-methyl-1-phenyl-1,2,3,4,4a,5-hexahydrodipyrido[1,2-b:2′,1′-f][1,2,4]triazine-6,8-dione] | 196 nM | – |
| CN1C(=O)c2c(O)c(=O)ccn2N2C(c3ccccc3)C(CC(F)F)CCC12 (single isomer, unassigned) [Compound 129C, 2-(2,2-difluoroethyl)-7-hydroxy-5-methyl-1-phenyl-1,2,3,4,4a,5-hexahydrodipyrido[1,2-b:2′,1′-f][1,2,4]triazine-6,8-dione] | 6.6 nM | – |
| CN1C(=O)c2c(O)c(=O)ccn2N2C(c3ccccc3)C(CC(F)F)CCC12 (single isomer, unassigned) [Compound 129D, 2-(2,2-difluoroethyl)-7-hydroxy-5-methyl-1-phenyl-1,2,3,4,4a,5-hexahydrodipyrido[1,2-b:2′,1′-f][1,2,4]triazine-6,8-dione] | 92 nM | – |
| CC(C)CC1CC(c2ccccc2)N2C(C1)N(C)C(=O)c1c(O)c(=O)ccn12 (single isomer, unassigned) [Compound 130A, 7-hydroxy-3-isobutyl-5-methyl-1-phenyl-1,2,3,4,4a,5-hexahydrodipyrido[1,2-b:2′,1′-f][1,2,4]triazine-6,8-dione] | – | > 8100 nM |
| CCN1C(=O)c2c(O)c(=O)cc(COC)n2N2C(c3ccccc3)C(CC(F)(F)F)CCC12 (single isomer, unassigned) [Compound 131A, 5-ethyl-7-hydroxy-10-(methoxymethyl)-1-phenyl-2-(2,2,2-trifluoroethyl)-1,2,3,4,4a,5-hexahydrodipyrido[1,2-b:2′,1′-f][1,2,4]triazine-6,8-dione] | – | > 810 nM |
| Cc1cc(=O)c(O)c2n1N1C(c3ccccc3)C(CC(F)(F)F)CCC1N(C)C2=O (single isomer, unassigned) [Compound 132A, 7-hydroxy-5,10-dimethyl-1-phenyl-2-(2,2,2-trifluoroethyl)-1,2,3,4,4a,5-hexahydrodipyrido[1,2-b:2′,1′-f][1,2,4]triazine-6,8-dione] | > 810 nM | – |
| Cc1cc(=O)c(O)c2n1N1C(c3ccccc3)C(CC(F)(F)F)CCC1N(C)C2=O (single isomer, unassigned) [Compound 132B, 7-hydroxy-5,10-dimethyl-1-phenyl-2-(2,2,2-trifluoroethyl)-1,2,3,4,4a,5-hexahydrodipyrido[1,2-b:2′,1′-f][1,2,4]triazine-6,8-dione] | 21.3 nM | – |

| SMILES | EC50 | EC50 (MDCK, 48 h) |
| --- | --- | --- |
| Cc1cc(=O)c(O)c2n1N1C(c3ccccc3)C(CC(F)(F)F)CCC1N(C)C2=O (single isomer, unassigned) [Compound 132C, 7-hydroxy-5,10-dimethyl-1-phenyl-2-(2,2,2-trifluoroethyl)-1,2,3,4,4a,5-hexahydrodipyrido[1,2-b:2′,1′-f][1,2,4]triazine-6,8-dione] | > 810 nM | – |
| Cc1cc(=O)c(O)c2n1N1C(c3ccccc3)C(CC(F)(F)F)CCC1N(C)C2=O (single isomer, unassigned) [Compound 132D, 7-hydroxy-5,10-dimethyl-1-phenyl-2-(2,2,2-trifluoroethyl)-1,2,3,4,4a,5-hexahydrodipyrido[1,2-b:2′,1′-f][1,2,4]triazine-6,8-dione] | > 810 nM | – |
| CN1C(=O)c2c(O)c(=O)ccn2N2C(c3ccccc3)C(O)CCC12 (single isomer, unassigned) [Compound 135A, 2,7-dihydroxy-5-methyl-1-phenyl-1,2,3,4,4a,5-hexahydrodipyrido[1,2-b:2′,1′-f][1,2,4]triazine-6,8-dione] | – | 428 nM |
| CN1C(=O)c2c(O)c(=O)ccn2N2[C@H](c3ccccc3)[C@H](OCC(F)F)CC[C@@H]12 (single isomer, unassigned) [Compound 153A] | 3060 nM | – |
| CN1C(=O)c2c(O)c(=O)ccn2N2[C@H](c3ccccc3)[C@H](OCC(F)F)CC[C@@H]12 (single isomer, unassigned) [Compound 153B] | 94.4 nM | – |
| CN1C(=O)c2c(O)c(=O)ccn2C2C1CCCC2(O)c1ccccc1 (single isomer, unassigned) [Compound 165A, 1,7-dihydroxy-5-methyl-1-phenyl-1,3,4,4a,5,11a-hexahydro-2H-pyrido[1,2-a]quinoxaline-6,8-dione] | – | > 8100 nM |
| CN1C(=O)c2c(O)c(=O)ccn2C2C1CCCC2(O)c1ccccc1 (single isomer, unassigned) [Compound 165B, 1,7-dihydroxy-5-methyl-1-phenyl-1,3,4,4a,5,11a-hexahydro-2H-pyrido[1,2-a]quinoxaline-6,8-dione] | > 8100 nM | – |
| CCCC1CCC2C(n3ccc(=O)c(O)c3C(=O)N2C)C1(O)c1ccccc1 (single isomer, unassigned) [Compound 166A, 1,7-dihydroxy-5-methyl-1-phenyl-2-propyl-1,3,4,4a,5,11a-hexahydro-2H-pyrido[1,2-a]quinoxaline-6,8-dione] | – | > 8100 nM |
| CCCC1CCC2C(n3ccc(=O)c(O)c3C(=O)N2C)C1(O)c1ccccc1 (single isomer, unassigned) [Compound 166B, 1,7-dihydroxy-5-methyl-1-phenyl-2-propyl-1,3,4,4a,5,11a-hexahydro-2H-pyrido[1,2-a]quinoxaline-6,8-dione] | > 8100 nM | – |
| CN1C(=O)c2c(O)c(=O)ccn2N2C(c3ccccc3)[C@H]3CCCC[C@H]3C12 (stereo partly drawn) [Compound 16, (6bR,10aS)-4-hydroxy-6-methyl-11-phenyl-6a,6b,7,8,9,10,10a,11-octahydro-3H-pyrido[1′,2′:1,6][1,2,4]triazino[3,2-a]isoindole-3,5(6H)-dione] | – | 4100 nM |
| CN1C(=O)c2c(OCc3ccccc3)c(=O)ccn2N2C(c3ccccc3)CCCCCC12 (stereo not shown) [Compound 58A, 4-(benzyloxy)-6-methyl-12-phenyl-6,6a,7,8,9,10,11,12-octahydropyrido[1′,2′:1,6][1,2,4]triazino[2,3-a]azocine-3,5-dione] | – | > 8100 nM |
| CN1C(=O)c2c(O)c(=O)ccn2N2C(c3ccccc3)CCC12 (stereo not shown) [Compound 60B, 6-hydroxy-4-methyl-1-phenyl-2,3,3a,4-tetrahydro-1H-pyrido[2,1-f]pyrrolo[1,2-b][1,2,4]triazine-5,7-dione] | – | 884 nM |
| CCC1(c2ccccc2)CCC2N(C)C(=O)c3c(O)c(=O)ccn3N21 (stereo not shown) [Compound 62A, 1-ethyl-6-hydroxy-4-methyl-1-phenyl-2,3,3a,4-tetrahydro-1H-pyrido[2,1-f]pyrrolo[1,2-b][1,2,4]triazine-5,7-dione] | – | > 8100 nM |
| C=CCC1CCC2N(C)C(=O)c3c(O)c(=O)ccn3N2C1c1ccccc1Cl (stereo not shown) [Compound 64A, 2-allyl-1-(2-chlorophenyl)-7-hydroxy-5-methyl-1,2,3,4,4a,5-hexahydrodipyrido[1,2-b:2′,1′-f][1,2,4]triazine-6,8-dione] | 3790 nM | – |
| C=CCC1CCC2N(C)C(=O)c3c(O)c(=O)ccn3N2C1c1ccccc1Cl (stereo not shown) [Compound 64B, 2-allyl-1-(2-chlorophenyl)-7-hydroxy-5-methyl-1,2,3,4,4a,5-hexahydrodipyrido[1,2-b:2′,1′-f][1,2,4]triazine-6,8-dione] | 28.4 nM | – |
